Measurements taken from article PMC6383986, “Fragment-Based Covalent Ligand Screening Enables Rapid Discovery of Inhibitors for the RBR E3 Ubiquitin Ligase HOIP” (Journal of the American Chemical Society, 2019).
Entries after “also recorded” stand apart in the source; their conditions may differ.

Target: T1, 3 × FLAG-tagged HOIP RBR from HEK293T cells (Homo sapiens, UniProt Q96EP0)
T1 construct: expressed in transfected cells; host or cells: HEK293T, transient, modified pcDNA3.1(+)
Assay: Immunoprecipitation and on-bead polyubiquitination assay after in-cell labeling
Format: cell-based
Details: 30 μM, E1, UbcH7, ubiquitin
Description: Supplementary Figure S12. A) Uncropped SDS gel and B) and Western Blot (FLAG antibody, 1:1000 dilution) from the immunoprecipitation (IP) of 3×FLAG HOIP RBR from HEK293T cells.
The cells had been incubated with compounds (11a) or (11i) [30 µM], or DMSO for 8 h. C) TIC traces for DMSO control, (11a)- and (11i)-treated HEK293T cell lysate after IP and tryptic digest.
D) Extracted TIC traces for the tryptic peptide […], accounting for possible cysteine labelling (iodoacetamide, (11a) or (11i)) and methionine oxidation.
Immunoprecipitation and Polyubiquitination assay
The protein concentrations of the clarified lysates were normalized with reaction buffer (50 mM Tris-HCl, pH 7.5, 1.5 mM MgCl2, 150 mM NaCl, 1 mM Na3VO4, complete protease inhibitor) to 1.5 mg/mL (final volume 500 µL, and <0.1% IGEPAL-CA630). Magnetic beads containing anti-FLAG M2 antibody (20 µL suspension per vial; Merck) were immobilized using a magnetic stand (GE Healthcare), washed with PBS (2 × 0.5 mL) and reaction buffer (2 × 0.5 mL) and then suspended in the lysate mixtures. Beads without lysate was used as control. The bead […]
A polyubiquitination assay master mix was prepared by mixing E1, UbcH7, ubiquitin, MgCl2, in buffer (50 mM HEPES, 150 mM NaCl, pH 7.5). […] All samples were analyzed by SDS PAGE and Western Blot (Figure 6C and Supplementary Figure S13) as described in sections 4.5 and 4.6. […]

T1 sequence (Q96EP0 697-1072): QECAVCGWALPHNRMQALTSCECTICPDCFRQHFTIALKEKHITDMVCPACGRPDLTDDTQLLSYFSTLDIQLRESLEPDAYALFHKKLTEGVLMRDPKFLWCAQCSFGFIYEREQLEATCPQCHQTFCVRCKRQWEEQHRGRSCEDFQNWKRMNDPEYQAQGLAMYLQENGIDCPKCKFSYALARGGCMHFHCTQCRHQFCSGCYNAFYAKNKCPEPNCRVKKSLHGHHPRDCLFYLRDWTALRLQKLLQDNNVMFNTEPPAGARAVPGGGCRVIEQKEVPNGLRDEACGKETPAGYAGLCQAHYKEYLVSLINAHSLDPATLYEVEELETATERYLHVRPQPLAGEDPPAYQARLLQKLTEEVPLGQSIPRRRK

SMILES: COC(=O)/C=C/CNC(=O)c1cc2c([nH]c1=O)CCCC2 [Compound 11a]
- catalytic activity of HOIP (free polyubiquitin chain formation) after in-cell labeling: significant loss of the catalytic activity; also recorded: significant decrease in free polyubiquitin chain formation
